In US20130115293A1, “Therapeutic Polymeric Nanoparticles Comprising Corticosteroids and Methods of Making and Using Same” (priority 2009, published 2013):
“And” between values parts separate entries of the source, which are not always exact repeats. Equal entries are not always repeated. Where two headings read alike, the source gives them in different places.

Tests used:
[1] = Rat study: pharmacokinetics, plasma levels by LCMS; format: in vivo, Rats (male Sprague Dawley); details: single intravenous dose 0.5 mg/kg; for AUC(0-inf) / clearance / Cmax / Vd / half-life: male, Sprague Dawley, iv, 0.5 mg/kg
Description: Rats (male Sprague Dawley, approximately 300 g with jugular cannulae) were given a single intravenous dose of 0.5 mg/kg of budesonide or passively targeted nanoparticles (PTNP) encapsulating budesonide (prepared as in Example 7) at time=0. At various times after dosing, blood samples were collected from the jugular cannulae into tubes containing lithium heparin, and plasma was prepared. Plasma levels were determined by extraction of the budesonide from plasma followed by LCMS analysis.

indomethacin-induced IBD = assay: Rat model of inflammatory bowel disease (indomethacin induced); format: in vivo, rats; details: for intestinal score decrease towards normal: days -1 to 3, scored day 4; for small intestine weight decrease toward normal: days -1 to 3, weighed day 4
Description: Budesonide and Budesonide PTNP were compared in a model of inflammatory bowel disease (IBD) as an efficacy model of inflammation. In this model, female rats were given two subcutaneous doses of 8 mg/kg indomethacin at 24 hour intervals to induce lesions resembling those occurring in Crohn's disease in the small intestine. Intravenous daily treatment with vehicle, budesonide (0.02, 0.2 or 2 mg/kg) or budesonide PTNP (0.02, 0.2 or 2 mg/kg) or oral daily treatment with Dexamethasone (0.1 mg/kg) was initiated one day before indomethacin treatment (day −1) and continued for 5 total days (days −1 to 3). Animals were euthanized on day 4, and a 10 cm area at risk in the small intestine was scored for gross pathology and weighed.
Using a disease scoring system in which a score of 0 is normal, and a score of 5 indicates death due to IBD symptoms, normal rats have an average score of 0, and an average intestinal weight of 0.488 g.

[2] = Solubility of drug in beta cyclodextrin (BCD) release medium; format: physicochemical
Description: For in vitro release studies using the procedure of Example 3, beta cyclodextrin (BCD) was evaluated as a solubilizer for maintaining sink conditions during the release of ciclesonide into the release medium.

CCCC1O[C@@H]2C[C@H]3[C@@H]4CCC5=CC(=O)C=C[C@]5(C)[C@H]4[C@@H](O)C[C@]3(C)[C@]2(C(=O)CO)O1 (some centres unmarked) [Budesonide, budesonide]
AUC(0-inf) ([1]; average of 6 rats, read-out: AUCinf (hr * ng/mL), Avg): 148 ng·h/mL
clearance ([1]; average of 6 rats, read-out: Cl (mL/hr/kg), Avg (converted)): 3480 mL/h/kg
Cmax ([1]; average of 6 rats, read-out: Cmax (ng/mL), Avg): 286 ng/mL
Vd ([1]; average of 6 rats, read-out: Vz (mL/kg), Avg): 3740 mL/kg
half-life ([1]; average of 6 rats, read-out: t1/2 (hr), Avg (converted)): 0.75 h
AUC(0-inf) ([1]; individual animals, read-out: AUCinf (hr * ng/mL), individual rats): 159 ng·h/mL
clearance ([1]; individual animals, read-out: Cl (mL/hr/kg), individual rats (converted)): 3140 mL/h/kg
Cmax ([1]; individual animals, read-out: Cmax (ng/mL), individual rats): 324 ng/mL
Vd ([1]; individual animals, read-out: Vz (mL/kg), individual rats): 3310 mL/kg
half-life ([1]; individual animals, read-out: t1/2 (hr), individual rats (converted)): 0.73 h
Cl (mL/hr/kg), individual rats ([1]; individual animals): 3966 mL/h/kg and 4611 mL/h/kg and 3104 mL/h/kg and 3151 mL/h/kg and 2892 mL/h/kg
Cmax (ng/mL), individual rats ([1]; individual animals): 241 ng/mL and 226 ng/mL and 337 ng/mL and 306 ng/mL and 279 ng/mL
Vz (mL/kg), individual rats ([1]; individual animals): 4291 mL/kg and 4937 mL/kg and 3104 mL/kg and 3191 mL/kg and 3627 mL/kg
intestinal score decrease towards normal (indomethacin-induced IBD; 0.02 mg/kg intravenous daily): 52%
small intestine weight decrease toward normal (indomethacin-induced IBD; 0.02 mg/kg intravenous daily): 52%
intestinal score decrease towards normal (indomethacin-induced IBD; 0.2 mg/kg intravenous daily): 53%
small intestine weight decrease toward normal (indomethacin-induced IBD; 0.2 mg/kg intravenous daily): 53%
intestinal score decrease towards normal (indomethacin-induced IBD; 2 mg/kg intravenous daily): 59%
small intestine weight decrease toward normal (indomethacin-induced IBD; 2 mg/kg intravenous daily): 59%

C[C@@H]1C[C@H]2[C@@H]3CCC4=CC(=O)C=C[C@]4(C)[C@@]3(Cl)[C@@H](O)C[C@]2(C)[C@@]1(OC(=O)c1ccco1)C(=O)CCl [MOM, Mometasone Furoate]
[MOM] ([2]; 10% wt BCD in PBS): 93.5 µg/mL
[MOM] ([2]; […] wt BCD in PBS): 33.42 µg/mL

CC(C)C(=O)OCC(=O)[C@@]12O[C@H](C3CCCCC3)O[C@@H]1C[C@H]1[C@@H]3CCC4=CC(=O)C=C[C@]4(C)[C@H]3[C@@H](O)C[C@@]12C [ciclesonide]
[ciclesonide] ([2]; 10% wt BCD): 133 µg/mL
[ciclesonide] ([2]; […] wt BCD): 17.58 µg/mL
